Patent US7750017B2, “Heterocycles” (Bayer Schering Pharma Aktiengesellschaft, priority 2004, dated 2010)
pIC50: −log10 of the molar value.

How the values were obtained:
[1] = tested on: BT474 [human breast carcinoma, overexpressing HER2 (ErbB2)]; experiment: In vitro tumor cell proliferation assay (Cell Titer-Glo luminescent cell viability), BT474 cells; type: cell-based; conditions: BT-474, 72 h, 72 hours of drug exposure, Cell Titer-Glo readout, read-out: IC50, anti-proliferative activity in BT474 cells
[2] = tested on: A431 cells [human epidermoid carcinoma, overexpressing HER1 (EGFR, ErbB1)]; experiment: In vitro tumor cell proliferation assay (Cell Titer-Glo luminescent cell viability), A431 cells; type: cell-based; conditions: A-431, 72 h, 72 hours of drug exposure, Cell Titer-Glo readout, read-out: IC50, anti-proliferative activity in A431 cells

Row | Compound | pIC50 [1] | pIC50 [2]
1 | O=C(Cc1ccc2c(c1)sc1ncnc(Nc3ccc4c(cnn4Cc4cccc(F)c4)c3)c12)NC1CN2CCC1CC2 (stereo not drawn) [Example 123, N-1-azabicyclo[2.2.2]oct-3-yl-2-(4-{[1-(3-fluorobenzyl)-1H-indazol-5-yl]amino}[1]benzothieno [2,3-d]pyrimidin-7-yl)acetamide] | ≥ 6.30 | ≥ 5.30
2 | CN1CCN(C(=O)Cc2ccc3c(c2)sc2ncnc(Nc4ccc5c(cnn5Cc5cccc(F)c5)c4)c23)CC1 [Example 124, N-[1-(3-fluorobenzyl)-1H-indazol-5-yl]-7-[2-(4-methylpiperazin-1-yl)-2-oxoethyl][1]benzothieno[2,3-d] pyrimidin-4-amine] | ≥ 6.30 | ≥ 5.30
3 | CN(C)[C@H]1CCN(C(=O)Cc2ccc3c(c2)sc2ncnc(Nc4ccc5c(cnn5Cc5cccc(F)c5)c4)c23)C1 [Example 125, 7-{2-[3-(dimethylamino)pyrrolidin-1-yl]-2-oxoethyl}-N-[1-(3-fluorobenzyl)-1H-indazol-5-yl] [1]benzothieno[2,3-d]pyrimidin-4-amine] | ≥ 6.30 | ≥ 5.30
4 | C=Cc1ccc2c(c1)sc1ncnc(Nc3ccc4c(cnn4Cc4ccccn4)c3)c12 [Example 130, N-[1-(pyridin-2-ylmethyl)-1H-indazol-5-yl]-7-vinyl[1] benzothieno[2,3-d]pyrimidin-4-amine] | ≥ 6.30 | ≥ 4.30
5 | OCC(O)c1ccc2c(c1)sc1ncnc(Nc3ccc4c(cnn4Cc4ccccn4)c3)c12 (stereo not drawn) [Example 131, 1-(4-{[1-(pyridin-2-ylmethyl)-1H-indazol-5-yl]amino}[1]benzothieno [2,3-d]pyrimidin-7-yl)ethane-1,2-diol] | ≥ 6.30 | ≥ 4.30
6 | OCCc1ccc2c(c1)sc1ncnc(Nc3ccc4c(cnn4Cc4ccccn4)c3)c12 [Example 132, 2-(4-{[1-(pyridin-2-ylmethyl)-1H-indazol-5-yl]amino}[1]benzothieno [2,3-d]pyrimidin-7-yl)ethanol] | ≥ 6.30 | ≥ 5.30
7 | OCCc1ccc2c(c1)sc1ncnc(Nc3ccc4c(ccn4Cc4ccccc4)c3)c12 [Example 133, 2-{4-[(1-benzyl-1H-indol-5-yl)amino][1]benzothieno[2,3-d]pyrimidin-7-yl}ethanol] | ≥ 6.30 | ≥ 4.30
8 | CCOC(=O)Cc1ccc2c(c1)sc1ncnc(Nc3ccc(OCc4cscn4)c(Cl)c3)c12 [Example 134, ethyl (4-{[3-chloro-4-(1,3-thiazol-4-ylmethoxy)phenyl]amino}[1]benzothieno[2,3-d]pyrimidin-7-yl)acetate] | ≥ 5.30 | ≥ 4.30
9 | O=C(O)Cc1ccc2c(c1)sc1ncnc(Nc3ccc(OCc4cscn4)c(Cl)c3)c12 [Example 135, (4-{[3-chloro-4-(1,3-thiazol-4-ylmethoxy)phenyl]amino}[1]benzothieno[2,3-d]pyrimidin-7-yl) acetic acid] | ≥ 5.30 | ≥ 4.30
10 | CN(C)[C@@H]1CCN(C(=O)Cc2ccc3c(c2)sc2ncnc(Nc4ccc(OCc5cscn5)c(Cl)c4)c23)C1 [Example 136, N-[3-chloro-4-(1,3-thiazol-4-ylmethoxy)phenyl]-7-{2-[(3R)-3-(dimethylamino)pyrrolidin-1-yl]-2-oxoethyl}[1]benzothieno[2,3-d] pyrimidin-4-amine] | ≥ 6.30 | ≥ 5.30
11 | O=C(Cc1ccc2c(c1)sc1ncnc(Nc3ccc(OCc4cscn4)c(Cl)c3)c12)N1CCOCC1 [Example 137, N-[3-chloro-4-(1,3-thiazol-4-ylmethoxy)phenyl]-7-(2-morpholin-4-yl-2-oxoethyl)[1]benzothieno [2,3-d]pyrimidin-4-amine] | ≥ 5.30 | ≥ 4.30
12 | CN1CCN(C(=O)Cc2ccc3c(c2)sc2ncnc(Nc4ccc(OCc5cscn5)c(Cl)c4)c23)CC1 [Example 138, N-[3-chloro-4-(1,3-thiazol-4-ylmethoxy)phenyl]-7-[2-(4-methylpiperazin-1-yl)-2-oxoethyl][1]benzothieno[2,3-d] pyrimidin-4-amine] | ≥ 5.30 | ≥ 5.30
13 | O=C(Cc1ccc2c(c1)sc1ncnc(Nc3ccc(OCc4cscn4)c(Cl)c3)c12)NCCCN1CCOCC1 [Example 139, 2-(4-{[3-chloro-4-(1,3-thiazol-4-ylmethoxy)phenyl]amino}[1]benzothieno[2,3-d]pyrimidin-7-yl)-N-(3-morpholin-4-ylpropyl) acetamide] | ≥ 5.30 | ≥ 4.30
14 | O=C(Cc1ccc2c(c1)sc1ncnc(Nc3ccc(OCc4cscn4)c(Cl)c3)c12)NCCN1CCOCC1 [Example 140, 2-(4-{[3-chloro-4-(1,3-thiazol-4-ylmethoxy)phenyl]amino}[1]benzothieno[2,3-d]pyrimidin-7-yl)-N-(2-morpholin-4-ylethyl) acetamide] | ≥ 5.30 | ≥ 4.30
15 | O=C(Cc1ccc2c(c1)sc1ncnc(Nc3ccc(OCc4cscn4)c(Cl)c3)c12)NCCO [Example 141, 2-(4-{[3-chloro-4-(1,3-thiazol-4-ylmethoxy)phenyl]amino}[1]benzothieno[2,3-d]pyrimidin-7-yl)-N-(2-hydroxyethyl)acetamide] | ≥ 5.30 | ≥ 4.30
16 | CN(C)CCNC(=O)Cc1ccc2c(c1)sc1ncnc(Nc3ccc(OCc4cscn4)c(Cl)c3)c12 [Example 142, 2-(4-{[3-chloro-4-(1,3-thiazol-4-ylmethoxy)phenyl]amino}[1]benzothieno[2,3-d]pyrimidin-7-yl)-N-[2-(dimethylamino)ethyl] acetamide] | ≥ 6.30 | ≥ 4.30
17 | CN(C)[C@H]1CCN(C(=O)Cc2ccc3c(c2)sc2ncnc(Nc4ccc(OCc5cscn5)c(Cl)c4)c23)C1 [Example 143, N-[3-chloro-4-(1,3-thiazol-4-ylmethoxy)phenyl]-7-{2-[(3S)-3-(dimethylamino)pyrrolidin-1-yl]-2-oxoethyl}[1]benzothieno[2,3-d] pyrimidin-4-amine] | ≥ 6.30 | ≥ 5.30

Now from value to molecule:

Row | pIC50 [1] | pIC50 [2] | Compound
18 | ≥ 6.30 | ≥ 4.30 | C=Cc1ccc2c(c1)sc1ncnc(Nc3ccc4c(cnn4Cc4cccc(F)c4)c3)c12 [Example 114, N-[1-(3-fluorobenzyl)-1H-indazol-5-yl]-7-vinyl[1]benzothieno[2,3-d] pyrimidin-4-amine]
19 | ≥ 6.30 | ≥ 5.30 | OCC(O)c1ccc2c(c1)sc1ncnc(Nc3ccc4c(cnn4Cc4cccc(F)c4)c3)c12 (stereo not drawn) [Example 115, 1-(4-{[1-(3-fluorobenzyl)-1H-indazol-5-yl]amino}[1]benzothieno [2,3-d]pyrimidin-7-yl)ethane-1,2-diol]
20 | ≥ 6.30 | ≥ 5.30 | OC[C@@H](O)c1ccc2c(c1)sc1ncnc(Nc3ccc4c(cnn4Cc4cccc(F)c4)c3)c12 [Example 116, (1S)-1-(4-{[1-(3-fluorobenzyl)-1H-indazol-5-yl]amino}[1]benzothieno [2,3-d]pyrimidin-7-yl)ethane-1,2-diol]
21 | ≥ 6.30 | ≥ 5.30 | OC[C@H](O)c1ccc2c(c1)sc1ncnc(Nc3ccc4c(cnn4Cc4cccc(F)c4)c3)c12 [Example 117, (1R)-1-(4-{[1-(3-fluorobenzyl)-1H-indazol-5-yl]amino}[1]benzothieno [2,3-d]pyrimidin-7-yl)ethane-1,2-diol]
22 | ≥ 5.30 | ≥ 4.30 | CCOC(=O)C(C(=O)OCC)c1ccc2c(c1)sc1ncnc(Nc3ccc4c(cnn4Cc4cccc(F)c4)c3)c12 [Example 118, diethyl (4-{[1-(3-fluorobenzyl)-1H-indazol-5-yl]amino}[1]benzothieno [2,3-d]pyrimidin-7-yl)malonate]
23 | ≥ 6.30 | ≥ 5.30 | Fc1cccc(Cn2ncc3cc(Nc4ncnc5sc6cc(N7CCNCC7)ccc6c45)ccc32)c1 [Example 119, N-[1-(3-fluorobenzyl)-1H-indazol-5-yl]-7-piperazin-1-yl[1]benzothieno [2,3-d]pyrimidin-4-amine]
24 | ≥ 6.30 | ≥ 4.30 | Fc1cccc(Cn2ncc3cc(Nc4ncnc5sc6cc(N7CCOCC7)ccc6c45)ccc32)c1 [Example 120, N-[1-(3-fluorobenzyl)-1H-indazol-5-yl]-7-morpholin-4-yl[1] benzothieno[2,3-d]pyrimidin-4-amine]
25 | ≥ 5.30 | ≥ 4.30 | O=C(O)Cc1ccc2c(c1)sc1ncnc(Nc3ccc4c(cnn4Cc4cccc(F)c4)c3)c12 [Example 121, (4-{[1-(3-fluorobenzyl)-1H-indazol-5-yl]amino}[1]benzothieno[2,3-d]pyrimidin-7-yl)acetic acid]
26 | ≥ 6.30 | ≥ 5.30 | CS(=O)(=O)CCNC(=O)Cc1ccc2c(c1)sc1ncnc(Nc3ccc4c(cnn4Cc4cccc(F)c4)c3)c12 [Example 122, 2-(4-{[1-(3-fluorobenzyl)-1H-indazol-5-yl]amino}[1]benzothieno[2,3-d]pyrimidin-7-yl)-N-[2-(methylsulfonyl)ethyl] acetamide]
27 | ≥ 6.30 | ≥ 5.30 | CN(C)CCNC(=O)Cc1ccc2c(c1)sc1ncnc(Nc3ccc4c(cnn4Cc4cccc(F)c4)c3)c12 [Example 126, N-[2-(dimethylamino)ethyl]-2-(4-{[1-(3-fluorobenzyl)-1H-indazol-5-yl]amino}[1]benzothieno[2,3-d]pyrimidin-7-yl)acetamide]
28 | ≥ 6.30 | ≥ 5.30 | OCCc1ccc2c(c1)sc1ncnc(Nc3ccc4c(cnn4Cc4cccc(F)c4)c3)c12 [Example 127, 2-(4-{[1-(3-fluorobenzyl)-1H-indazol-5-yl]amino}[1]benzothieno [2,3-d]pyrimidin-7-yl)ethanol]
29 | ≥ 6.30 | ≥ 5.30 | CN1CCN(CCc2ccc3c(c2)sc2ncnc(Nc4ccc5c(cnn5Cc5cccc(F)c5)c4)c23)CC1 [Example 128, N-[1-(3-fluorobenzyl)-1H-indazol-5-yl]-7-[2-(4-methylpiperazin-1-yl)ethyl][1]benzothieno[2,3-d] pyrimidin-4-amine]
30 | ≥ 6.30 | ≥ 5.30 | Fc1cccc(Cn2ncc3cc(Nc4ncnc5sc6cc(CCN7CCOCC7)ccc6c45)ccc32)c1 [Example 129, N-[1-(3-fluorobenzyl)-1H-indazol-5-yl]-7-(2-morpholin-4-ylethyl) [1]benzothieno[2,3-d]pyrimidin-4-amine]
